Our source for the target mRNA inhibition values is the OligoGym collection.

After the bases stand the sugars from the 5' end (letter, count) and the backbone: PS all phosphorothioate, else s phosphorothioate and o phosphodiester by linkage. Methylation of C is not given here. l = locked nucleic acid (LNA); d = 2'-deoxy (DNA)

The data set deals with SNHG14. The note with it: ASO.
The mark [1] stands for this setting: Mouse Primary Neuronal Cell, 0.005 µM.

Regarding “TTCTACTATACTTTCCTCT (sugars ldddddddddddldlddll, PS)”, the target mRNA inhibition (Human Neuronal Cell, 7.5 µM) was 60%. On the same count and under the same terms, for “CAAAGATCATTCTCAAC (sugars l2 d1 l1 d7 l6, PS)” the value was 26%.

In the case of ATCTCATGACCACCTA (sugars l3 d10 l3, PS), the target mRNA inhibition reads like this: (Human Neuronal Cell, 0.2 µM) 60%; (Human Neuronal Cell, 1 µM) 70%. Turning to “ATTTACACTTAATTATACTT (sugars llldlddddddddlldllll, PS)”, the target mRNA inhibition (Human Neuronal Cell, 7.5 µM) was 27%. Still for that read-out and setting: the result for “CAGCTTTTAACCAGAGTG (sugars l3 d13 l2, PS)” reads 76%. On to “AACTGTTTATACCCTTT (sugars l4 d11 l2, PS)”, for which the target mRNA inhibition runs as follows: (Human Neuronal Cell, 0.2 µM) 51%; (Human Neuronal Cell, 1 µM) 55%. CCAAGATAATCATCAT (sugars l3 d10 l3, PS): the target mRNA inhibition is, setting by setting: (Human Neuronal Cell, 0.2 µM) 41%; (Human Neuronal Cell, 1 µM) 42%.

As for TTGATTCCACCATTAA (sugars l3 d10 l3, PS), the target mRNA inhibition is, setting by setting: (Human Neuronal Cell, 0.2 µM) 49%; (Human Neuronal Cell, 1 µM) 28%. In the case of “ACTCTGCAATACACCAA (sugars lddldddddddldldll, PS)”, for the setting “Human Neuronal Cell, 7.5 µM”, the target mRNA inhibition worked out at 66%. For “ACCTACATCTCATACTT (sugars l3 d11 l3, PS)”, the target mRNA inhibition was 1% (Human Neuronal Cell, 0.2 µM); -10% (Human Neuronal Cell, 1 µM); 6% (Human Neuronal Cell, 5 µM); 94.2% under setting [1].

Regarding “ATCTCATGACCACCTAA (sugars lddlldddddddldlll, PS)”, for the setting “Human Neuronal Cell, 7.5 µM”, the target mRNA inhibition came out at 68%. Still for that read-out and setting: the result for “GCACATTCTTTCTATAC (sugars ldldlddddddlddlll, PS)” reads 49%. Still for that read-out and setting: the result for “TTACACTTAATTATACTTCC (sugars ldllddldddddddldddll, PS)” reads 64%; that for “TTGATTCAATTCCCTTA (sugars llddldddddddlddll, PS)”, 67%; that for “ACTGTTTATACCCTTTC (sugars ldddlddddddlddlll, PS)”, 53%. As for TCTCATGACCACCTAA (sugars l2 d10 l4, PS), the target mRNA inhibition (Human Neuronal Cell, 0.2 µM) was found to be 39% and the target mRNA inhibition (Human Neuronal Cell, 1 µM) was found to be 54%.

On to AGACTAATCCTCTTAA (sugars l3 d10 l3, PS), for which the target mRNA inhibition runs as follows: (Human Neuronal Cell, 0.2 µM) 38%; (Human Neuronal Cell, 1 µM) 52%. Take “CAAAGATCATTCTCAAC (sugars l2 d2 l1 d6 l6, PS)”: the target mRNA inhibition (Human Neuronal Cell, 7.5 µM) came to 18%.

“TCTTACTCTGACTTTCCA (sugars l2 d14 l2, PS)”: the target mRNA inhibition amounted to 56% (Human Neuronal Cell, 0.2 µM) and 65% (Human Neuronal Cell, 1 µM). Consider ACTCTGCAATACACCA (sugars l3 d10 l3, PS), for which the target mRNA inhibition stood at 52% (Human Neuronal Cell, 0.2 µM) and 56% (Human Neuronal Cell, 1 µM). As for “TACCTACATCTCATACT (sugars l4 d11 l2, PS)”, the target mRNA inhibition was -53% (Human Neuronal Cell, 0.2 µM); -18% (Human Neuronal Cell, 1 µM); 11% (Human Neuronal Cell, 5 µM); 94.4% under setting [1]. As for CCTACATCTCATACTT (sugars l2 d10 l4, PS), the target mRNA inhibition under setting [1] amounted to 96.5%. Regarding CTTCCCTTTGATAACA (sugars l4 d10 l2, PS), the target mRNA inhibition came to 12% (Human Neuronal Cell, 0.2 µM) and 32% (Human Neuronal Cell, 1 µM).

As to TATCAGTTATCCAATA (sugars l4 d10 l2, PS), the target mRNA inhibition stood at 42% (Human Neuronal Cell, 0.2 µM) and 51% (Human Neuronal Cell, 1 µM).

Turning to “TTATACACCATCATTAT (sugars l3 d11 l3, PS)”, the target mRNA inhibition (Human Neuronal Cell, 0.2 µM) turned out to be 47% and the target mRNA inhibition (Human Neuronal Cell, 1 µM) amounted to 52%.

Turning to “ACTCTGCAATACACCAA (sugars l2 d11 l4, PS)”, the target mRNA inhibition (Human Neuronal Cell, 7.5 µM) turned out to be 59%.

TCAGAATAATTCTCCT (sugars l3 d10 l3, PS): the target mRNA inhibition is, setting by setting: (Human Neuronal Cell, 0.2 µM) 49%; (Human Neuronal Cell, 1 µM) 57%.

On to TCTGTATACACCATCC (sugars l4 d10 l2, PS), for which the target mRNA inhibition is, setting by setting: (Human Neuronal Cell, 0.2 µM) 61%; (Human Neuronal Cell, 1 µM) 68%.

As for “TATACCTTTCTTTAACCCT (sugars l2 d15 l2, PS)”, the target mRNA inhibition was 13% (Human Neuronal Cell, 0.2 µM) and 37% (Human Neuronal Cell, 1 µM). As for “TTTTTTCTTACTATCTTCAA (sugars l1 d13 l1 d2 l3, PS)”, under “Human Neuronal Cell, 7.5 µM”, the target mRNA inhibition was determined as 60%.

With TCATCATATTGAACCA (sugars l3 d10 l3, PS), the target mRNA inhibition reads like this: (Human Neuronal Cell, 0.2 µM) 65%; (Human Neuronal Cell, 1 µM) 68%. The corresponding values for GCTAATTTAAATTTCC (sugars l4 d10 l2, PS) are 49% and 67%. Regarding “CTTTTAACCAGAGTGGCATC (sugars l2 d16 l2, PS)”, under “Human Neuronal Cell, 7.5 µM”, the target mRNA inhibition turned out to be 57%. As to “CTTCTTGTTTATCCCAA (sugars l2 d11 l4, PS)”, the target mRNA inhibition (Human Neuronal Cell, 0.2 µM) turned out to be 57% and the target mRNA inhibition (Human Neuronal Cell, 1 µM) was found to be 68%.

Regarding “AAAATTATTTATACACCATC (sugars lldllldddddddlddllll, PS)”, the target mRNA inhibition (Human Neuronal Cell, 7.5 µM) came out at 52%. Consider “AATTATTTATACACCATCAT (sugars llddldddddddddldllll, PS)”, for which, under “Human Neuronal Cell, 7.5 µM”, the target mRNA inhibition turned out to be 70%. Regarding “TTATACCTTTCTTTAACCCT (sugars ldlddlddddddddddddll, PS)”, the target mRNA inhibition (Human Neuronal Cell, 7.5 µM) came to 56%. As to TGTTTATACCCTTTCC (sugars l4 d10 l2, PS), the target mRNA inhibition (Human Neuronal Cell, 0.2 µM) was 58% and the target mRNA inhibition (Human Neuronal Cell, 1 µM) amounted to 56%. As for “ATTTTTTTCTTACTATCTTC (sugars lldlddddddddddlddlll, PS)”, for the setting “Human Neuronal Cell, 7.5 µM”, the target mRNA inhibition was determined as 57%. In the case of “AAATCTCAACTACCATTTTT (sugars lldddllddddddlddllll, PS)”, under “Human Neuronal Cell, 7.5 µM”, the target mRNA inhibition amounted to 29%. Turning to “TGAAAATCTCAACTACCAT (sugars ldllddddddddlddldll, PS)”, the target mRNA inhibition (Human Neuronal Cell, 7.5 µM) amounted to 44%. As to TGTCATCTACAAATCA (sugars l4 d10 l2, PS), the target mRNA inhibition by setting is: (Human Neuronal Cell, 0.2 µM) 50%; (Human Neuronal Cell, 1 µM) 46%. In the case of “TTATTTCCATTTATTTTCA (sugars ldldlddddddddllldll, PS)”, the target mRNA inhibition (Human Neuronal Cell, 7.5 µM) came out at 62%. For “CCTACATCTCATACTTGC (sugars l2 d12 l4, PS)”, the target mRNA inhibition under setting [1] amounted to 97.3%.

Take “TTTACACTTAATTATACTTC (sugars ldlllddddddddlllddll, PS)”: under “Human Neuronal Cell, 7.5 µM”, the target mRNA inhibition was 48%. Same read-out and setting: for “TATTGATTCAATTCCCT (sugars lddllddddddddldll, PS)” the value was 64%. The same measure, in the same setting: the result for “TATACCTTTCTTTAACCCTT (sugars lddddlddddddddddldll, PS)” reads 61%. In the case of “TATACCTTTCTTTAACCCTT (sugars ldddlddddddddddlddll, PS)”, under “Human Neuronal Cell, 7.5 µM”, the target mRNA inhibition is 54%. Turning to TCTACCCTAAATTCCC (sugars l2 d11 l3, PS), the target mRNA inhibition reads like this: (Human Neuronal Cell, 0.2 µM) 14%; (Human Neuronal Cell, 1 µM) 29%. The corresponding values for “AAATTGTCTACCTTCCT (sugars l2 d12 l3, PS)” are 29% and 19%. The corresponding values for GTTAACCTATATTTCA (sugars l4 d10 l2, PS) are 15% and 6%.

For CACTAGTACTCTTATT (sugars l4 d10 l2, PS), the target mRNA inhibition amounted to 43% (Human Neuronal Cell, 0.2 µM) and 38% (Human Neuronal Cell, 1 µM). The corresponding values for CTCAGACATCTCAATA (sugars l4 d10 l2, PS) are 45% and 43%. Turning to “GTTTCCATCTACTATTAA (sugars llddldddddddldldll, PS)”, the target mRNA inhibition (Human Neuronal Cell, 7.5 µM) turned out to be 31%.
